{"source": "patent US4731451A", "about": "“N-((2-oxo-3(2H)benzothiazolyl)methyl)-2-chloroacetanilides” (Monsanto Company, priority 1980, dated 1988); note: ranges in brackets are in %", "format_in_all_cases": "in vivo", "key": {"Lambsquarters [1]": {"system": "Lambsquarters", "assay": "Pre-emergent herbicidal activity (Table II)", "settings": "2-3 weeks", "method": "(§1) The pre-emergence tests are conducted as follows:\n(§2) A good grade of top soil is placed in aluminum pans and compacted to a depth of three-eighths to one-half inch from the top of the pan. On the top of the soil is placed a predetermined number of seeds or vegetative propagules of various plant species. The soil required to level fill the pans after seeding or adding vegetative propagules is weighed into a pan. A known amount of the active ingredient applied in a solvent or as a wettable powder suspension and the soil are thoroughly mixed, and used as a cover layer for prepared pans. After treatment, the pans are moved into a greenhouse bench where they are watered from below as needed to give adequate moisture for germination and growth.\n(§3) Approximately 2-3 weeks after seeding and treating, the plants are observed and the results recorded. The herbicidal rating is obtained by means of fixed scale based on the percent injury of each plant species. The ratings are defined as follows: […]\n(§4) The plant species utilized in one set of tests, the data for which are shown in Table II, are identified by letter in accordance with the following legend: […]"}, "Yellow Nutsedge": {"system": "Yellow Nutsedge", "assay": "Pre-emergent herbicidal activity (Table II)", "settings": "2-3 weeks", "method": "as §1, §2, §3, §4"}, "Velvetleaf [2]": {"system": "Velvetleaf", "assay": "Pre-emergent herbicidal activity (Table II)", "settings": "2-3 weeks", "method": "as §1, §2, §3, §4"}, "Barnyardgrass [3]": {"system": "Barnyardgrass", "assay": "Pre-emergent herbicidal activity (Table II)", "settings": "2-3 weeks", "method": "as §1, §2, §3, §4"}, "Downy Brome [4]": {"system": "Downy Brome", "assay": "Pre-emergent herbicidal activity (Table II)", "settings": "2-3 weeks", "method": "as §1, §2, §3, §4"}, "Morningglory [5]": {"system": "Morningglory", "assay": "Pre-emergent herbicidal activity (Table II)", "settings": "2-3 weeks", "method": "as §1, §2, §3, §4"}, "Smartweed [6]": {"system": "Smartweed", "assay": "Pre-emergent herbicidal activity (Table II)", "settings": "2-3 weeks", "method": "as §1, §2, §3, §4"}, "Quackgrass": {"system": "Quackgrass", "assay": "Pre-emergent herbicidal activity (Table II)", "settings": "2-3 weeks", "method": "as §1, §2, §3, §4"}, "Johnsongrass": {"system": "Johnsongrass", "assay": "Pre-emergent herbicidal activity (Table II)", "settings": "2-3 weeks", "method": "as §1, §2, §3, §4"}, "Canada Thistle": {"system": "Canada Thistle", "assay": "Pre-emergent herbicidal activity (Table II)", "settings": "2-3 weeks", "method": "as §1, §2, §3, §4"}, "Cocklebur [7]": {"system": "Cocklebur", "assay": "Pre-emergent herbicidal activity (Table II)", "settings": "2-3 weeks", "method": "as §1, §2, §3, §4"}, "Soybean": {"system": "Soybean", "assay": "Pre-emergent herbicidal activity (Table III)", "method": "as §1, §2, §3\n(§5) The compounds were further tested by utilizing the above procedure on the following plant species: […]"}, "Panicum": {"system": "Panicum", "assay": "Pre-emergent herbicidal activity (Table III)", "method": "as §1, §2, §3, §5"}, "Wheat": {"system": "Wheat", "assay": "Pre-emergent herbicidal activity (Table III)", "method": "as §1, §2, §3, §5"}, "Lambsquarters [8]": {"system": "Lambsquarters", "assay": "Pre-emergent herbicidal activity (Table III)", "method": "as §1, §2, §3, §5"}, "Sorghum": {"system": "Sorghum", "assay": "Pre-emergent herbicidal activity (Table III)", "method": "as §1, §2, §3, §5"}, "Velvetleaf [9]": {"system": "Velvetleaf", "assay": "Pre-emergent herbicidal activity (Table III)", "method": "as §1, §2, §3, §5"}, "Sugarbeet": {"system": "Sugarbeet", "assay": "Pre-emergent herbicidal activity (Table III)", "method": "as §1, §2, §3, §5"}, "Barnyardgrass [10]": {"system": "Barnyardgrass", "assay": "Pre-emergent herbicidal activity (Table III)", "method": "as §1, §2, §3, §5"}, "Downy Brome [11]": {"system": "Downy Brome", "assay": "Pre-emergent herbicidal activity (Table III)", "method": "as §1, §2, §3, §5"}, "Rice": {"system": "Rice", "assay": "Pre-emergent herbicidal activity (Table III)", "method": "as §1, §2, §3, §5"}, "Morningglory [12]": {"system": "Morningglory", "assay": "Pre-emergent herbicidal activity (Table III)", "method": "as §1, §2, §3, §5"}, "Hemp Sesbania": {"system": "Hemp Sesbania", "assay": "Pre-emergent herbicidal activity (Table III)", "method": "as §1, §2, §3, §5"}, "Smartweed [13]": {"system": "Smartweed", "assay": "Pre-emergent herbicidal activity (Table III)", "method": "as §1, §2, §3, §5"}, "Wild Buckwheat": {"system": "Wild Buckwheat", "assay": "Pre-emergent herbicidal activity (Table III)", "method": "as §1, §2, §3, §5"}, "Crabgrass": {"system": "Crabgrass", "assay": "Pre-emergent herbicidal activity (Table III)", "method": "as §1, §2, §3, §5"}, "Cocklebur [14]": {"system": "Cocklebur", "assay": "Pre-emergent herbicidal activity (Table III)", "method": "as §1, §2, §3, §5"}}}
{"smiles": "CC1=C(N(Cn2c(=O)sc3ccccc32)C(=O)CCl)C(C)CCC1", "note": "(stereo not shown) [Example 9, N--[(2-oxo-3(2H)--benzothiazolyl)methyl]-N--(2,6-dimethyl-1-cyclohexen-1-yl)-2-chloroamide]", "values": [{"measurement": "Herbicidal rating", "setting": "Lambsquarters [1]; 5.6 kg/ha", "result": "1 (25-49)"}, {"measurement": "Herbicidal rating", "setting": "Lambsquarters [1]; 11.2 kg/ha", "result": "1 (25-49)"}, {"measurement": "Herbicidal rating", "setting": "Yellow Nutsedge; 5.6 kg/ha", "result": "0 (0-24)"}, {"measurement": "Herbicidal rating", "setting": "Yellow Nutsedge; 11.2 kg/ha", "result": "0 (0-24)"}, {"measurement": "Herbicidal rating", "setting": "Velvetleaf [2]; 5.6 kg/ha", "result": "0 (0-24)"}, {"measurement": "Herbicidal rating", "setting": "Velvetleaf [2]; 11.2 kg/ha", "result": "0 (0-24)"}, {"measurement": "Herbicidal rating", "setting": "Barnyardgrass [3]; 5.6 kg/ha", "result": "3 (75-100)"}, {"measurement": "Herbicidal rating", "setting": "Barnyardgrass [3]; 11.2 kg/ha", "result": "3 (75-100)"}, {"measurement": "Herbicidal rating", "setting": "Downy Brome [4]; 5.6 kg/ha", "result": "0 (0-24)"}, {"measurement": "Herbicidal rating", "setting": "Downy Brome [4]; 11.2 kg/ha", "result": "2 (50-74)"}, {"measurement": "Herbicidal rating", "setting": "Morningglory [5]; 5.6 kg/ha", "result": "0 (0-24)"}, {"measurement": "Herbicidal rating", "setting": "Morningglory [5]; 11.2 kg/ha", "result": "0 (0-24)"}, {"measurement": "Herbicidal rating", "setting": "Smartweed [6]; 5.6 kg/ha", "result": "0 (0-24)"}, {"measurement": "Herbicidal rating", "setting": "Smartweed [6]; 11.2 kg/ha", "result": "3 (75-100)"}, {"measurement": "Herbicidal rating", "setting": "Quackgrass; 5.6 kg/ha", "result": "0 (0-24)"}, {"measurement": "Herbicidal rating", "setting": "Quackgrass; 11.2 kg/ha", "result": "1 (25-49)"}, {"measurement": "Herbicidal rating", "setting": "Johnsongrass; 5.6 kg/ha", "result": "0 (0-24)"}, {"measurement": "Herbicidal rating", "setting": "Johnsongrass; 11.2 kg/ha", "result": "0 (0-24)"}, {"measurement": "Herbicidal rating", "setting": "Canada Thistle; 5.6 kg/ha", "result": "0 (0-24)"}, {"measurement": "Herbicidal rating", "setting": "Canada Thistle; 11.2 kg/ha", "result": "0 (0-24)"}, {"measurement": "Herbicidal rating", "setting": "Cocklebur [7]; 5.6 kg/ha", "result": "0 (0-24)"}, {"measurement": "Herbicidal rating", "setting": "Cocklebur [7]; 11.2 kg/ha", "result": "0 (0-24)"}, {"measurement": "Herbicidal rating", "setting": "Soybean; 0.26 kg/ha", "result": "0 (0-24)"}, {"measurement": "Herbicidal rating", "setting": "Soybean; 1.12 kg/ha", "result": "0 (0-24)"}, {"measurement": "Herbicidal rating", "setting": "Soybean; 5.6 kg/ha", "result": "0 (0-24)"}, {"measurement": "Herbicidal rating", "setting": "Panicum; 0.26 kg/ha", "result": "0 (0-24)"}, {"measurement": "Herbicidal rating", "setting": "Panicum; 1.12 kg/ha", "result": "0 (0-24)"}, {"measurement": "Herbicidal rating", "setting": "Panicum; 5.6 kg/ha", "result": "3 (75-100)"}, {"measurement": "Herbicidal rating", "setting": "Wheat; 0.26 kg/ha", "result": "0 (0-24)"}, {"measurement": "Herbicidal rating", "setting": "Wheat; 1.12 kg/ha", "result": "0 (0-24)"}, {"measurement": "Herbicidal rating", "setting": "Wheat; 5.6 kg/ha", "result": "2 (50-74)"}, {"measurement": "Herbicidal rating", "setting": "Lambsquarters [8]; 0.26 kg/ha", "result": "0 (0-24)"}, {"measurement": "Herbicidal rating", "setting": "Lambsquarters [8]; 1.12 kg/ha", "result": "0 (0-24)"}, {"measurement": "Herbicidal rating", "setting": "Lambsquarters [8]; 5.6 kg/ha", "result": "1 (25-49)"}, {"measurement": "Herbicidal rating", "setting": "Sorghum; 0.26 kg/ha", "result": "0 (0-24)"}, {"measurement": "Herbicidal rating", "setting": "Sorghum; 1.12 kg/ha", "result": "0 (0-24)"}, {"measurement": "Herbicidal rating", "setting": "Sorghum; 5.6 kg/ha", "result": "2 (50-74)"}, {"measurement": "Herbicidal rating", "setting": "Velvetleaf [9]; 0.26 kg/ha", "result": "0 (0-24)"}, {"measurement": "Herbicidal rating", "setting": "Velvetleaf [9]; 1.12 kg/ha", "result": "0 (0-24)"}, {"measurement": "Herbicidal rating", "setting": "Velvetleaf [9]; 5.6 kg/ha", "result": "0 (0-24)"}, {"measurement": "Herbicidal rating", "setting": "Sugarbeet; 0.26 kg/ha", "result": "0 (0-24)"}, {"measurement": "Herbicidal rating", "setting": "Sugarbeet; 1.12 kg/ha", "result": "0 (0-24)"}, {"measurement": "Herbicidal rating", "setting": "Sugarbeet; 5.6 kg/ha", "result": "1 (25-49)"}, {"measurement": "Herbicidal rating", "setting": "Barnyardgrass [10]; 0.26 kg/ha", "result": "2 (50-74)"}, {"measurement": "Herbicidal rating", "setting": "Barnyardgrass [10]; 1.12 kg/ha", "result": "3 (75-100)"}, {"measurement": "Herbicidal rating", "setting": "Barnyardgrass [10]; 5.6 kg/ha", "result": "3 (75-100)"}, {"measurement": "Herbicidal rating", "setting": "Downy Brome [11]; 0.26 kg/ha", "result": "0 (0-24)"}, {"measurement": "Herbicidal rating", "setting": "Downy Brome [11]; 1.12 kg/ha", "result": "0 (0-24)"}, {"measurement": "Herbicidal rating", "setting": "Downy Brome [11]; 5.6 kg/ha", "result": "2 (50-74)"}, {"measurement": "Herbicidal rating", "setting": "Rice; 0.26 kg/ha", "result": "0 (0-24)"}, {"measurement": "Herbicidal rating", "setting": "Rice; 1.12 kg/ha", "result": "2 (50-74)"}, {"measurement": "Herbicidal rating", "setting": "Rice; 5.6 kg/ha", "result": "2 (50-74)"}, {"measurement": "Herbicidal rating", "setting": "Morningglory [12]; 1.12 kg/ha", "result": "0 (0-24)"}, {"measurement": "Herbicidal rating", "setting": "Morningglory [12]; 5.6 kg/ha", "result": "0 (0-24)"}, {"measurement": "Herbicidal rating", "setting": "Hemp Sesbania; 1.12 kg/ha", "result": "0 (0-24)"}, {"measurement": "Herbicidal rating", "setting": "Hemp Sesbania; 5.6 kg/ha", "result": "0 (0-24)"}, {"measurement": "Herbicidal rating", "setting": "Smartweed [13]; 0.26 kg/ha", "result": "0 (0-24)"}, {"measurement": "Herbicidal rating", "setting": "Smartweed [13]; 1.12 kg/ha", "result": "0 (0-24)"}, {"measurement": "Herbicidal rating", "setting": "Smartweed [13]; 5.6 kg/ha", "result": "1 (25-49)"}, {"measurement": "Herbicidal rating", "setting": "Wild Buckwheat; 0.26 kg/ha", "result": "0 (0-24)"}, {"measurement": "Herbicidal rating", "setting": "Wild Buckwheat; 1.12 kg/ha", "result": "0 (0-24)"}, {"measurement": "Herbicidal rating", "setting": "Wild Buckwheat; 5.6 kg/ha", "result": "0 (0-24)"}, {"measurement": "Herbicidal rating", "setting": "Crabgrass; 0.26 kg/ha", "result": "1 (25-49)"}, {"measurement": "Herbicidal rating", "setting": "Crabgrass; 1.12 kg/ha", "result": "2 (50-74)"}, {"measurement": "Herbicidal rating", "setting": "Crabgrass; 5.6 kg/ha", "result": "3 (75-100)"}, {"measurement": "Herbicidal rating", "setting": "Cocklebur [14]; 0.26 kg/ha", "result": "0 (0-24)"}, {"measurement": "Herbicidal rating", "setting": "Cocklebur [14]; 1.12 kg/ha", "result": "0 (0-24)"}]}
